Measurements as given in US7056654B2, “Screening assay for inhibitors of human cytochrome P-450” (SmithKline Beecham Corporation, priority 1999, dated 2006).

Target: T1, CYP2C8 (Homo sapiens, UniProt P10632)
T1 sequence (P10632 1-490): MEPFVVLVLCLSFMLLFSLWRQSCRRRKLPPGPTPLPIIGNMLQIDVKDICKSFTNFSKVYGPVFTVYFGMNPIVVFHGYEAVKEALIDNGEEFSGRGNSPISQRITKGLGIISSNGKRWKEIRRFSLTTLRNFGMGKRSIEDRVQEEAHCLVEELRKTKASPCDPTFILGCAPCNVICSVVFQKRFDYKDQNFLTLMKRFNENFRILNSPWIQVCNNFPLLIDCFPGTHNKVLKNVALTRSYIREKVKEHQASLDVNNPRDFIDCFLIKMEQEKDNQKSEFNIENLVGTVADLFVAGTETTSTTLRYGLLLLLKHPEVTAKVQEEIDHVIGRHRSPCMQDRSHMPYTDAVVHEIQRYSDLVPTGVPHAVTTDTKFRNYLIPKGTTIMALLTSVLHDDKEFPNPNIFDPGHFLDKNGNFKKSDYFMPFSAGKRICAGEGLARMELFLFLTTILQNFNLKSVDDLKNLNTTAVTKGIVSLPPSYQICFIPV
Details: pH 7.4
Description: Assay Methodology for CYP2C8
• 400 μM diethoxyfluorescein, (i.e. 0.155 mg/mL in acetonitrile)—store at approx. −20° C. in the dark • 2% (w/v) NaHCO3—store at approx. 4° C. • 50 mM potassium phosphate buffer, pH 7.4
Freshly prepared cofactor solution:—approx. the following per mL of 2% (w/v) NaHCO3 • 1.7 mg NADP, monosodium salt • 7.8 mg glucose-6-phosphate, monosodium salt • 6 Units glucose-6-phosphate dehydrogenase, Type VII from Bakers Yeast Method: • 1) Pre-warm the plate reader oven to 37° C. and pre-warm the lamp for at least 10 minutes. • 2) Mix 2.5 μL of 400 µM diethoxyfluorescein, 5 μL (50 μg) CYP2C8 microsomal protein and 212.5 μL buffer per incubate (giving 4 µM diethoxyfluorescein and 200 μg/mL protein final concentration). • 3) To each well of a 96-well plate add 220 µL of incubation mix and 5 μL of test compound solution (or 5 μL of appropriate solvent for control wells—methanol, DMSO or acetonitrile may be used). • 4) Pre-incubate the multi-well plate in the plate reader at 37° C. for 5 minutes. Pre-warm the cofactor solution at 37° C. for 5 minutes. • 5) Add 25 μL cofactor solution to each well and scan with an excitation wavelength of 485 nm and an emission wavelength of 530 nm with a gain of 80. Scan for 10 cycles at 1 minute intervals.

IC50: 3000 nM
Structure (SMILES): O=c1c(O)c(-c2ccc(O)c(O)c2)oc2cc(O)cc(O)c12 [quercitin]
